Patent US9790210B2, “N-(monocyclic aryl),N'-pyrazolyl-urea, thiourea, guanidine and cyanoguanidine compounds as TrkA kinase inhibitors” (Array BioPharma Inc., priority 2012, dated 2017)
Structures can show the parent of a compound that is named as a salt.

What follows are compounds tested against TrkA (Homo sapiens, UniProt P04629) (assay: TrkA LanthaScreen Eu Kinase Binding Assay). Conditions: averaged IC50; TR-FRET binding assay; read-out: TrkA Enzyme IC50.
Set-up: 6HIS tagged cytoplasmic domain from Invitrogen, Catalog No. PV3144; purchased Invitrogen PV3144
Method: TrkA binding activity was determined in a TrkA LanthaScreen™ Eu Kinase Binding Assay. 5 nM His-tagged recombinant human TrkA (6HIS tagged cytoplasmic domain from Invitrogen, Catalog No. PV3144) was incubated with 4 nM Alexa-Fluor® Tracer 236 (Invitrogen Cat. No. PV5592), 2 nM biotinylated anti-His (Invitrogen Cat. No. PV6090), and 2 nM europium-labeled Streptavidin (Invitrogen Cat. No. PV5899), in buffer (25 mM MOPS, pH 7.5, 5 mM MgCl2, 0.005% Triton X-100). Three fold serial dilutions of compounds of the invention in DMSO were added to a final percentage of 2% DMSO. After 60-minute incubation at 22° C., the reaction was measured using the EnVision mutlimode plate reader (PerkinElmer) via TR-FRET dual wavelength detection at […]. The percent of control was calculated using a ratiometric emission factor. The IC50 values were determined by fitting a four parameter model to the percent of control data.
Table A provides averaged IC50 values for compounds of the invention when tested in the assay of Example A, where A represents an averaged IC50 value<100 nM; B represents an averaged IC50 value from 100 to 1,000 nM; and C represents an averaged IC50 value from 1,000 to 10,000 nM.

Chain of TrkA (P04629 440-796 limits assumed): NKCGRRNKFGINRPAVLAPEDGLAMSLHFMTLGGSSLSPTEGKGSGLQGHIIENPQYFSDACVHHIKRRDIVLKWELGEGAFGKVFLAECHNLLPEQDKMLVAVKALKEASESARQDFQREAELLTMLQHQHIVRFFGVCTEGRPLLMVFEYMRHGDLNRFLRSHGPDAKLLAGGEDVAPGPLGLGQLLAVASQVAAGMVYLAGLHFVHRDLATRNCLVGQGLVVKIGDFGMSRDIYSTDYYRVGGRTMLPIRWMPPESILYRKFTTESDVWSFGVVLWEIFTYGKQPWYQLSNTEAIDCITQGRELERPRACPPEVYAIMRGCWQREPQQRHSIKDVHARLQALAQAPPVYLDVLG

| IC50 [nM] | Structure (SMILES) |
| --- | --- |
| < 100 | COCCCc1cc(Cl)c(Cl)cc1NC(=O)Nc1c(C)c(OC2CCN(C)CC2)nn1-c1ccccc1 [Example 30, 1-(4,5-dichloro-2-(3-methoxypropyl)phenyl)-3-(4-methyl-3-((1-methylpiperidin-4-yl)oxy)-1-phenyl-1H-pyrazol-5-yl)urea] |
| < 100 | COCCCc1cc(Cl)c(Cl)cc1NC(=O)Nc1c(C)c(OC[C@@H]2CNCCO2)nn1-c1ccccc1 [Example 38, (S)-1-(4,5-dichloro-2-(3-methoxypropyl)phenyl)-3-(4-methyl-3-(morpholin-2-ylmethoxy)-1-phenyl-1H-pyrazol-5-yl)urea hydrochloride] |
| < 100 | COCCOc1ccc(Cl)cc1NC(=O)Nc1c(C)c(-c2cnn(C)c2)nn1-c1ccccc1 [Example 12, 1-(5-chloro-2-(2-methoxyethoxy)phenyl)-3-(1′,4-dimethyl-1-phenyl-1H,1′H-[3,4′-bipyrazol]-5-yl)urea] |
| < 100 | COCCCc1cc(Cl)c(Cl)cc1NC(=O)Nc1c(C)c(C(=O)NC2CCOCC2)nn1-c1ccccc1 [Example 36, 5-(3-(4,5-dichloro-2-(3-methoxypropyl)phenyl)ureido)-4-methyl-1-phenyl-N-(tetrahydro-2H-pyran-4-yl)-1H-pyrazole-3-carboxamide] |
| < 100 | COCCCc1cc(Cl)c(Cl)cc1NC(=O)Nc1c(C)c(OC[C@H]2CN(C)CCO2)nn1-c1ccccc1 [Example 32, (R)-1-(4,5-dichloro-2-(3-methoxypropyl)phenyl)-3-(4-methyl-3-((4-methylmorpholin-2-yl)methoxy)-1-phenyl-1H-pyrazol-5-yl)urea] |
| < 100 | COCCCc1cc(Cl)c(Cl)cc1NC(=O)Nc1c(C)c(OC[C@H]2CNCCO2)nn1-c1ccccc1 [Example 44, (R)-1-(4,5-dichloro-2-(3-methoxypropyl)phenyl)-3-(4-methyl-3-(morpholin-2-ylmethoxy)-1-phenyl-1H-pyrazol-5-yl)urea hydrochloride] |
| < 100 | COCCCc1cc(Cl)c(Cl)cc1NC(=O)Nc1c(C)c(OC[C@@H]2CCCN(C)C2)nn1-c1ccccc1 [Example 35, (R)-1-(4,5-dichloro-2-(3-methoxypropyl)phenyl)-3-(4-methyl-3-((1-methylpiperidin-3-yl)methoxy)-1-phenyl-1H-pyrazol-5-yl)urea] |
| < 100 | COCCCc1cc(F)c(C(F)(F)F)cc1NC(=O)Nc1c(C)c(OC[C@H](O)CO)nn1-c1ccccc1 [Example 22, (R)-1-(3-(2,3-dihydroxypropoxy)-4-methyl-1-phenyl-1H-pyrazol-5-yl)-3-(4-fluoro-2-(3-methoxypropyl)-5-(trifluoromethyl)phenyl)urea] |
| < 100 | COCCCc1cc(Cl)c(Cl)cc1NC(=O)Nc1c(C)c(OCCN2CCNCC2)nn1-c1ccccc1 [Example 39, 1-(4,5-dichloro-2-(3-methoxypropyl)phenyl)-3-(4-methyl-1-phenyl-3-(2-(piperazin-1-yl)ethoxy)-1H-pyrazol-5-yl)urea dihydrochloride] |
| < 100 | CNC(=O)c1nn(-c2ccccc2)c(NC(=O)Nc2cc(C(F)(F)F)c(F)cc2CCCOC)c1C [Example 19, 5-(3-(4-fluoro-2-(3-methoxypropyl)-5-(trifluoromethyl)phenyl)ureido)-N,4-dimethyl-1-phenyl-1H-pyrazole-3-carboxamide] |
| < 100 | COCCOc1ccc(C(F)(F)F)cc1NC(=O)Nc1c(C)c(-c2cnn(C)c2)nn1-c1ccccc1 [Example 2, 1-(1′,4-dimethyl-1-phenyl-1H,1′H-[3,4′-bipyrazol]-5-yl)-3-(2-(2-methoxyethoxy)-5-(trifluoromethyl)phenyl)urea] |
| < 100 | COCCCc1cc(Cl)c(Cl)cc1NC(=O)Nc1c(C)c(OCCN2CCN(C(=O)OC(C)(C)C)CC2)nn1-c1ccccc1 [Example 49, tert-butyl 4-(2-((5-(3-(4,5-dichloro-2-(3-methoxypropyl)phenyl)ureido)-4-methyl-1-phenyl-1H-pyrazol-3-yl)oxy)ethyl)piperazine-1-carboxylate] |
| < 100 | COCCOc1cc(C(F)(F)F)ccc1NC(=O)Nc1c(C)c(-c2cnn(C)c2)nn1-c1ccccc1 [Example 10, 1-(1′,4-dimethyl-1-phenyl-1H,1′H-[3,4′-bipyrazol]-5-yl)-3-(2-(2-methoxyethoxy)-4-(trifluoromethyl)phenyl)urea] |
| < 100 | COCCOc1nc(C)c(Cl)cc1NC(=O)Nc1c(C)c(-c2cnn(C)c2)nn1-c1ccccc1 [Example 6, 1-(5-chloro-2-(2-methoxyethoxy)-6-methylpyridin-3-yl)-3-(1′,4-dimethyl-1-phenyl-1H,1′H-[3,4′-bipyrazol]-5-yl)urea] |
| < 100 | COCCOc1cc(Cl)c(Cl)cc1NC(=O)Nc1c(C)c(-c2cnn(C)c2)nn1-c1ccccc1 [Example 3, 1-(4,5-dichloro-2-(2-methoxyethoxy)phenyl)-3-(1′,4-dimethyl-1-phenyl-1H,1′H-[3,4′-bipyrazol]-5-yl)urea] |
| < 100 | COCCCc1cc(Cl)c(Cl)cc1NC(=O)Nc1c(C)c(C(=O)NC2CCN(C)CC2)nn1-c1ccccc1 [Example 33, 5-(3-(4,5-dichloro-2-(3-methoxypropyl)phenyl)ureido)-4-methyl-N-(1-methylpiperidin-4-yl)-1-phenyl-1H-pyrazole-3-carboxamide] |
| < 100 | COCCCc1cc(Cl)c(Cl)cc1NC(=O)Nc1c(C)c(OC[C@@H]2CCCNC2)nn1-c1ccccc1 [Example 47, (R)-1-(4,5-dichloro-2-(3-methoxypropyl)phenyl)-3-(4-methyl-1-phenyl-3-(piperidin-3-ylmethoxy)-1H-pyrazol-5-yl)urea hydrochloride] |
| < 100 | COCCCc1ccc(Cl)cc1NC(=O)Nc1c(C)c(-c2cnn(C)c2)nn1-c1ccccc1 [Example 9, 1-(5-chloro-2-(3-methoxypropyl)phenyl)-3-(1′,4-dimethyl-1-phenyl-1H,1′H-[3,4′-bipyrazol]-5-yl)urea] |
| < 100 | COCCCc1cc(F)c(C(F)(F)F)cc1NC(=O)Nc1c(C)c(OC)nn1-c1ccccc1 [Example 48, 1-(4-fluoro-2-(3-methoxypropyl)-5-(trifluoromethyl)phenyl)-3-(3-methoxy-4-methyl-1-phenyl-1H-pyrazol-5-yl)urea] |
| < 100 | COCCCc1cc(Cl)c(Cl)cc1NC(=O)Nc1c(C)c(OCC2(F)CCNCC2)nn1-c1ccccc1 [Example 45, 1-(4,5-dichloro-2-(3-methoxypropyl)phenyl)-3-(3-((4-fluoropiperidin-4-yl)methoxy)-4-methyl-1-phenyl-1H-pyrazol-5-yl)urea hydrochloride] |
| < 100 | COCCOc1cc(Cl)c(Cl)cc1NC(=O)Nc1c(C)c(-c2ccc(=O)n(C)c2)nn1-c1ccccc1 [Example 8, 1-(4,5-dichloro-2-(2-methoxyethoxy)phenyl)-3-(4-methyl-3-(1-methyl-6-oxo-1,6-dihydropyridin-3-yl)-1-phenyl-1H-pyrazol-5-yl)urea] |
| < 100 | COCCCc1cc(Cl)c(Cl)cc1NC(=O)Nc1c(C)c(C2(C#N)CCOCC2)nn1-c1ccccc1 [Example 14, 1-(3-(4-cyanotetrahydro-2H-pyran-4-yl)-4-methyl-1-phenyl-1H-pyrazol-5-yl)-3-(4,5-dichloro-2-(3-methoxypropyl)phenyl)urea] |
| 100 to 1000 | COCCOc1cc(Cl)ccc1NC(=O)Nc1c(C)c(-c2cnn(C)c2)nn1-c1ccccc1 [Example 11, 1-(4-chloro-2-(2-methoxyethoxy)phenyl)-3-(1′,4-dimethyl-1-phenyl-1H,1′H-[3,4′-bipyrazol]-5-yl)urea] |
| < 100 | COCCCc1cc(F)c(C(F)(F)F)cc1NC(=O)Nc1c(C)c(-c2ccc(=O)n(C)c2)nn1-c1ccccc1 [Example 17, 1-(4-fluoro-2-(3-methoxypropyl)-5-(trifluoromethyl)phenyl)-3-(4-methyl-3-(1-methyl-6-oxo-1,6-dihydropyridin-3-yl)-1-phenyl-1H-pyrazol-5-yl)urea] |
| < 100 | COCCOc1cc(Cl)c(F)cc1NC(=O)Nc1c(C)c(-c2cnn(C)c2)nn1-c1ccccc1 [Example 5, 1-(4-chloro-5-fluoro-2-(2-methoxyethoxy)phenyl)-3-(1′,4-dimethyl-1-phenyl-1H,1′H-[3,4′-bipyrazol]-5-yl)urea] |
| < 100 | CNC(=O)c1nn(-c2ccccc2)c(NC(=O)Nc2cc(Cl)c(Cl)cc2CC(F)(F)COC)c1C [Example 27, 5-(3-(4,5-dichloro-2-(2,2-difluoro-3-methoxypropyl)phenyl)ureido)-N,4-dimethyl-1-phenyl-1H-pyrazole-3-carboxamide] |
| < 100 | CNC(=O)c1nn(-c2ccccc2)c(NC(=O)Nc2cc(C(F)(F)F)ccc2CCCOC)c1C [Example 26, 5-(3-(2-(3-methoxypropyl)-5-(trifluoromethyl)phenyl)ureido)-N,4-dimethyl-1-phenyl-1H-pyrazole-3-carboxamide] |
| < 100 | COCCCc1cc(Cl)c(Cl)cc1NC(=O)Nc1c(C)c(OC2CCNCC2)nn1-c1ccccc1 [Example 42, 1-(4,5-dichloro-2-(3-methoxypropyl)phenyl)-3-(4-methyl-1-phenyl-3-(piperidin-4-yloxy)-1H-pyrazol-5-yl)urea hydrochloride] |
